According to paper PMC9405973, “Altered Conformational Landscape upon Sensing Guanine Nucleotides in a Disease Mutant of Elongation Factor-like 1 (EFL1) GTPase” (Biomolecules, 2022):

Molecular target: T1, Efl1 R1086Q in complex with Sdo1 and 60S subunits (Saccharomyces cerevisiae, UniProt P53893, R1086Q)
T1 construct: made in house; host or cells: Efl1: Saccharomyces cerevisiae; Sdo1: Escherichia coli C41; 60S subunits purified from S. cerevisiae strain JD1370
T1 sequence (P53893 1-1110 R1086Q): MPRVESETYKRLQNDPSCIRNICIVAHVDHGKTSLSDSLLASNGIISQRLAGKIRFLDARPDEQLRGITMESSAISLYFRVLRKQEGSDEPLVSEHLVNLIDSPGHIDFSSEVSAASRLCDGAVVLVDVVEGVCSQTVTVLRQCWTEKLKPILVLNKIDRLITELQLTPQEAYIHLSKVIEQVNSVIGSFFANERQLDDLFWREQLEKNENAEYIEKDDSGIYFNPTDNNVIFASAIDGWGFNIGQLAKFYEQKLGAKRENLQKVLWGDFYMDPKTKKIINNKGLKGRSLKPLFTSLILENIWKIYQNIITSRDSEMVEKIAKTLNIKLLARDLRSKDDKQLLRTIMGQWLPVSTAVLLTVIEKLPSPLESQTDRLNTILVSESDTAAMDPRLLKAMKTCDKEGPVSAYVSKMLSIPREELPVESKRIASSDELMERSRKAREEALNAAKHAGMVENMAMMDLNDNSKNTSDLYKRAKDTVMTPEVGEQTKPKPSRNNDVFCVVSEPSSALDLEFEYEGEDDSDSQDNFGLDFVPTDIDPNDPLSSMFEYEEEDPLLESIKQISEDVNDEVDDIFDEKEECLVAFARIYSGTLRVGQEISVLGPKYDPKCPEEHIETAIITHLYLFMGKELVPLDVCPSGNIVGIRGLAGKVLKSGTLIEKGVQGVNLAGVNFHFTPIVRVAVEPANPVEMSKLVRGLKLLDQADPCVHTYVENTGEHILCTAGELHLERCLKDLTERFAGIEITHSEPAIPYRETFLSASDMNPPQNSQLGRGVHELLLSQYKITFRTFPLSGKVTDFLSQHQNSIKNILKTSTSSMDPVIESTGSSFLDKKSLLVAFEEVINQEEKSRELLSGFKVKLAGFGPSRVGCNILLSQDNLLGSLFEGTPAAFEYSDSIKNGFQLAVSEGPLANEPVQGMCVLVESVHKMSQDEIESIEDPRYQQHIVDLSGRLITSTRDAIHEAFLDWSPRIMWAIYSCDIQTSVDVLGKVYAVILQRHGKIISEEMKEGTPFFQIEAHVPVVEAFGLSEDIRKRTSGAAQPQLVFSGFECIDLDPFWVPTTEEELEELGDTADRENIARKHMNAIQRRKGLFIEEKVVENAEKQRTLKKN
T1 sequence (Q07953 1-250 partner): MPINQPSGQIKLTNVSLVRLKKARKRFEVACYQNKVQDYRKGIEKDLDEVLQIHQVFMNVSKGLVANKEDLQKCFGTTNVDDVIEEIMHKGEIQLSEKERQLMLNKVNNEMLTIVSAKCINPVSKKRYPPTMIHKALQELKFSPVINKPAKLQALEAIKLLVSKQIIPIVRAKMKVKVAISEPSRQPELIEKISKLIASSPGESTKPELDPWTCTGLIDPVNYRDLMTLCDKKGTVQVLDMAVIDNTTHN
Experiment: Steady state fluorescence binding of mant-GTP to Efl1 R1086Q in complex with Sdo1 and 60S subunits
Details: 25 °C, one-binding-site model; read-out: dissociation constant (Kd)
Method: We measured the binding of different Efl1 constructs present in complex with Sdo1 and 60S subunits to the fluorescence GTP analogue, mant-GTP, by following the increase in the fluorescence signal after excitation at 355 nm. Fluorescence intensities were plotted as a function of increasing nucleotide concentrations, and the dissociation constant (Kd) was calculated by fitting the data to a one-binding-site model (Supplementary Figure S1B).
Hydrolysis of GTP was measured using the Enzchek Phosphate Assay kit (Molecular Probes) as described by Webb. Standard reactions consisted of 100 µL containing 6 µM of Efl1 R1086Q and Efl1 L910K, 0.3 mM MESG, 1.0 U purine nucleoside phosphorylase (PNP) and the indicated amounts of GTP. […]
Reactions were initiated and the GTPase was added after 3 min. Time courses were followed by recording the change in absorbance at 360 nm in a Cary 60 UV -Vis spectrophotometer (Agilent Technologies). Background absorbance was recorded prior to the addition of the GTPase and subtracted from the sample signals. The slope of the measured time courses corresponded to the GTP hydrolysis rate. […] Data were analysed by nonlinear regression to the M ichaelis-Menten equation with the program Origin Version 5.0 (OriginLab, Co., Northampton, MA). […]
Steady state fluorescence measurements […]
Maximum emission at 440 nm was replotted as a function of nucleotide concentration and analysed

Question: For `CNc1ccccc1C(=O)O[C@H]1[C@@H](O)[C@H](n2cnc3c(=O)[nH]c(N)nc32)O[C@@H]1COP(=O)(O)OP(=O)(O)OP(=O)(O)O` [mant-GTP], which Kd is on record?
Answer: 32 µM
